Patent US8541418B2, “Inhibitors of polo-like kinase” (Elan Pharmaceutical, Inc., priority 2009, dated 2013)
Where two headings read alike, the source gives them in different places. Blank lines part the entries; values can stand above or below the compound they belong to.

Columns and labels:
PLK2 [1] = target: T1, PLK2 (Homo sapiens, UniProt Q9NYY3); test: Kinase panel screening at InVitrogen, PLK2; settings: 10 μM compound
PLK2 [2] = target: T1, PLK2; test: PLK TR-FRET peptide assay, PLK2; format: biochemical; settings: for IC50: PLK TR-FRET peptide assay, read-out: Plk2 IC50; for relative PLK2 activity of the enantiomers: compared with the opposite enantiomer
PLK1 = PLK1 (Homo sapiens, UniProt P53350); test: PLK TR-FRET peptide assay, PLK1; format: biochemical
PLK3 = PLK3 (Homo sapiens, UniProt Q9H4B4); test: PLK TR-FRET peptide assay, PLK3; format: biochemical
[3] = GST-PLK3, 15 min reaction, read-out: Plk3 IC50

Sequence of PLK1 (P53350 whole entry): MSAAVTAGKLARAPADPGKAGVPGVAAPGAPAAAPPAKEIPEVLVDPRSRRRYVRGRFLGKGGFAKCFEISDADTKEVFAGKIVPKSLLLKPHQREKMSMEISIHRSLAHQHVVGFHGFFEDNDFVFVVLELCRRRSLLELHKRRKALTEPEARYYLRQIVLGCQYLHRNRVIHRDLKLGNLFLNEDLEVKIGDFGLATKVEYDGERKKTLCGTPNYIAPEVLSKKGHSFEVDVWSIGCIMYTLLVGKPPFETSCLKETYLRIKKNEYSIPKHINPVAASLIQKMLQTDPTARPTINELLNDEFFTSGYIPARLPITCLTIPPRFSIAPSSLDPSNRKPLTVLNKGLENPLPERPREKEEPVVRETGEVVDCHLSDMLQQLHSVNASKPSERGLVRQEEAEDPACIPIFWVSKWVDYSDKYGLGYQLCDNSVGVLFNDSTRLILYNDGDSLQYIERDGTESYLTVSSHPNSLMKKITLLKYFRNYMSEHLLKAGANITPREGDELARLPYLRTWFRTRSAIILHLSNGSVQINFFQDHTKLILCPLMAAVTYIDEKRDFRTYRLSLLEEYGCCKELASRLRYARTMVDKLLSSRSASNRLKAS
Sequence of PLK3 (Q9H4B4 whole entry): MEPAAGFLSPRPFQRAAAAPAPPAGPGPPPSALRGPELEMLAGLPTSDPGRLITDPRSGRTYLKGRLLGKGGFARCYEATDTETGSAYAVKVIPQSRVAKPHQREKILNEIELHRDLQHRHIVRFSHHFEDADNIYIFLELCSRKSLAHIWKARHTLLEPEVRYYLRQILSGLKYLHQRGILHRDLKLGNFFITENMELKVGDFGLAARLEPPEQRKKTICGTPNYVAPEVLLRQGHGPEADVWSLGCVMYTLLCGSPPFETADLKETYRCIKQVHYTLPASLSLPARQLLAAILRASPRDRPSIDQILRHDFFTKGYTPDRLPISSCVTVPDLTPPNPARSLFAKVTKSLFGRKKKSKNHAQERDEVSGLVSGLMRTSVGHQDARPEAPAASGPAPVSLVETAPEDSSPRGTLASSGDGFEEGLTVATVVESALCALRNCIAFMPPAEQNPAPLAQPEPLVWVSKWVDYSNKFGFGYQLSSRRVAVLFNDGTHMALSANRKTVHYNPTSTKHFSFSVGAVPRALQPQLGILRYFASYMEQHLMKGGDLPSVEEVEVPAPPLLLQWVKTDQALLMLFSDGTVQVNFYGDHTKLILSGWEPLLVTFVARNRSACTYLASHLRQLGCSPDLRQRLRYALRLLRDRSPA
T1 sequence (Q9NYY3 whole entry): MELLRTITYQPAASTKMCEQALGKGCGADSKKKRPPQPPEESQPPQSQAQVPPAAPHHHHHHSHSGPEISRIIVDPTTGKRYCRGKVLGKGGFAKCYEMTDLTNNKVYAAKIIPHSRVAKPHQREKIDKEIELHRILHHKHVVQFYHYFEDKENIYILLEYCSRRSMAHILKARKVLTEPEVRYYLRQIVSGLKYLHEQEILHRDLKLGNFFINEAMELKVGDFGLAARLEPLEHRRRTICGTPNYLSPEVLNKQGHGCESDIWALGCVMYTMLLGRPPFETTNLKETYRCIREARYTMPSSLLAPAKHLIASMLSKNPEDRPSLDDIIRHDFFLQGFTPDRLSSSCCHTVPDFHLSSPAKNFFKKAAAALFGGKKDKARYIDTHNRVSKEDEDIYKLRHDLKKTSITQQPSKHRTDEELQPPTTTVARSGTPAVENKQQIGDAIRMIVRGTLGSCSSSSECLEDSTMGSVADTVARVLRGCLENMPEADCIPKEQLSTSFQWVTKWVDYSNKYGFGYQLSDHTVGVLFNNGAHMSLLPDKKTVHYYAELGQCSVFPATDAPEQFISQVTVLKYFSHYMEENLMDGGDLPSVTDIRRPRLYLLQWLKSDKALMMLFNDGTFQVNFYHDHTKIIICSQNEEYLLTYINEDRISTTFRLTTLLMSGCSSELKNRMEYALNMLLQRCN

SMILES: CC[C@@H]1C(=O)N(C)c2cnc(-n3ccnc3-c3ccccc3)nc2N1C1CCCC1 [Example 26, (R)-8-cyclopentyl-7-ethyl-5-methyl-2-(2-phenyl-1H-imidazol-1-yl)-7,8-dihydropteridin-6(5H)-one]
- activity against PLK2 in kinase panel (PLK2 [1]): potent

SMILES: CC[C@@H]1C(=O)N(C)c2cnc(-n3ccnc3-c3ccc(F)cc3)nc2N1C(C)C1CC1 (stereo partly drawn) [Example 351, (7R)-8-(1-cyclopropylethyl)-7-ethyl-2-(2-(4-fluorophenyl)-1H-imidazol-1-yl)-5-methyl-7,8-dihydropteridin-6(5H)-one]
- IC50 (PLK2 [2]; GST-PLK2, 60 min reaction): < 1000 nM
- IC50 (PLK1; GST-PLK1, 60 min reaction): 1000 to 10000 nM
- IC50 (PLK3; [3]): 1000 to 10000 nM

SMILES: CC[C@@H]1C(=O)N(C)c2cnc(-n3ccnc3C(F)(F)F)nc2N1C1CCCC1 [Example 352, (R)-8-cyclopentyl-7-ethyl-5-methyl-2-(2-(trifluoromethyl)-1H-imidazol-1-yl)-7,8-dihydropteridin-6(5H)-one]
- IC50 (PLK2 [2]; GST-PLK2, 60 min reaction): < 1000 nM
- IC50 (PLK1; GST-PLK1, 60 min reaction): 1000 to 10000 nM
- IC50 (PLK3; [3]): 1000 to 10000 nM

SMILES: CC[C@@H]1C(=O)N(C)c2cnc(-c3cn[nH]c3-c3nccs3)nc2N1C1CC(F)(F)C1 [Example 353, (R)-8-(3,3-difluorocyclobutyl)-7-ethyl-5-methyl-2-(5-(thiazol-2-yl)-1H-pyrazol-4-yl)-7,8-dihydropteridin-6(5H)-one]
- IC50 (PLK2 [2]; GST-PLK2, 60 min reaction): < 1000 nM
- IC50 (PLK1; GST-PLK1, 60 min reaction): 1000 to 10000 nM
- IC50 (PLK3; [3]): 1000 to 10000 nM

SMILES: CC[C@@H]1C(=O)N(C)c2cnc(-c3sc(C#N)nc3-c3ccc(F)cc3)nc2N1C(C)C [Example 354, (R)-5-(7-ethyl-8-isopropyl-5-methyl-6-oxo-5,6,7,8-tetrahydropteridin-2-yl)-4-(4-fluorophenyl)thiazole-2-carbonitrile]
- IC50 (PLK2 [2]; GST-PLK2, 60 min reaction): < 1000 nM
- IC50 (PLK1; GST-PLK1, 60 min reaction): 1000 to 10000 nM
- IC50 (PLK3; [3]): < 1000 nM

SMILES: CC[C@@H]1C(=O)N(C)c2cnc(-c3cncs3)nc2N1C1CCCC1 [Example 355, (R)-8-cyclopentyl-7-ethyl-5-methyl-2-(thiazol-5-yl)-7,8-dihydropteridin-6(5H)-one]
- IC50 (PLK2 [2]; GST-PLK2, 60 min reaction): < 1000 nM
- IC50 (PLK1; GST-PLK1, 60 min reaction): < 1000 nM
- IC50 (PLK3; [3]): 1000 to 10000 nM

SMILES: CC[C@@H]1CC[C@@]2(CC)C(=O)N(C)c3cnc(-c4cn[nH]c4-c4cscn4)nc3N12 [Example 356, (6aS,9R)-6a,9-diethyl-5-methyl-2-(5-(thiazol-4-yl)-1H-pyrazol-4-yl)-6a,7,8,9-tetrahydropyrrolo[2,1-h]pteridin-6(5H)-one]
- IC50 (PLK2 [2]; GST-PLK2, 60 min reaction): < 1000 nM
- IC50 (PLK1; GST-PLK1, 60 min reaction): 1000 to 10000 nM
- IC50 (PLK3; [3]): 1000 to 10000 nM

SMILES: CC[C@@H]1C(=O)N(C)c2cnc(-c3cn[nH]c3-c3nccs3)nc2N1C(C)C1CC1 (stereo partly drawn) [Example 357, (7R)-8-(1-cyclopropylethyl)-7-ethyl-5-methyl-2-(5-(thiazol-2-yl)-1H-pyrazol-4-yl)-7,8-dihydropteridin-6(5H)-one]
- IC50 (PLK2 [2]; GST-PLK2, 60 min reaction): < 1000 nM
- IC50 (PLK1; GST-PLK1, 60 min reaction): < 1000 nM
- IC50 (PLK3; [3]): 1000 to 10000 nM

SMILES: CC[C@@H]1C(=O)N(C)c2cnc(-n3ccnc3-c3ccc(F)cc3)nc2N1c1cccc(C#N)c1 [Example 358, (R)-3-(7-ethyl-2-(2-(4-fluorophenyl)-1H-imidazol-1-yl)-5-methyl-6-oxo-6,7-dihydropteridin-8(5H)-yl)benzonitrile]
- IC50 (PLK2 [2]; GST-PLK2, 60 min reaction): < 1000 nM
- relative PLK2 activity of the enantiomers (PLK2 [2]): more active compound
- IC50 (PLK1; GST-PLK1, 60 min reaction): 1000 to 10000 nM
- IC50 (PLK3; [3]): 1000 to 10000 nM

SMILES: CC[C@H]1C(=O)N(C)c2cnc(-n3ccnc3-c3ccc(F)cc3)nc2N1c1cccc(C#N)c1 [Example 359, (S)-3-(7-ethyl-2-(2-(4-fluorophenyl)-1H-imidazol-1-yl)-5-methyl-6-oxo-6,7-dihydropteridin-8(5H)-yl)benzonitrile]
- IC50 (PLK2 [2]; GST-PLK2, 60 min reaction): 1000 to 10000 nM
- IC50 (PLK1; GST-PLK1, 60 min reaction): > 50000 nM
- IC50 (PLK3; [3]): 10000 to 50000 nM

SMILES: CCC1C(=O)N(C)c2cnc(-c3cn[nH]c3-c3nccs3)nc2N1c1ccc(F)cc1 (centres unmarked) [Example 370]
- IC50 (PLK2 [2]; GST-PLK2, 60 min reaction): < 1000 nM
- IC50 (PLK1; GST-PLK1, 60 min reaction): < 1000 nM
- IC50 (PLK3; [3]): 1000 to 10000 nM

SMILES: CCC1C(=O)N(C)c2cnc(-c3cn[nH]c3-c3nccs3)nc2N1c1cccc(C#N)c1 (centres unmarked) [Example 372, 3-(7-ethyl-5-methyl-6-oxo-2-(5-(thiazol-2-yl)-1H-pyrazol-4-yl)-6,7-dihydropteridin-8(5H)-yl)benzonitrile]
- IC50 (PLK2 [2]; GST-PLK2, 60 min reaction): < 1000 nM
- IC50 (PLK1; GST-PLK1, 60 min reaction): 1000 to 10000 nM
- IC50 (PLK3; [3]): 1000 to 10000 nM

SMILES: CC[C@@H]1C(=O)N(C)c2cnc(-c3cn[nH]c3-c3nccs3)nc2N1c1ccc(Cl)cc1 [Example 382, (R)-8-(4-chlorophenyl)-7-ethyl-5-methyl-2-(5-(thiazol-2-yl)-1H-pyrazol-4-yl)-7,8-dihydropteridin-6(5H)-one]
- IC50 (PLK2 [2]; GST-PLK2): < 1000 nM
- relative PLK2 activity of the enantiomers (PLK2 [2]): more active compound
- IC50 (PLK1; GST-PLK1): < 1000 nM
- IC50 (PLK3; GST-PLK3, read-out: Plk3 IC50): < 1000 nM

SMILES: CC[C@H]1C(=O)N(C)c2cnc(-c3cn[nH]c3-c3nccs3)nc2N1c1ccc(Cl)cc1 [Example 383, (S)-8-(4-chlorophenyl)-7-ethyl-5-methyl-2-(5-(thiazol-2-yl)-1H-pyrazol-4-yl)-7,8-dihydropteridin-6(5H)-one]
- IC50 (PLK2 [2]; GST-PLK2): 1000 to 10000 nM
- IC50 (PLK1; GST-PLK1): 10000 to 50000 nM
- IC50 (PLK3; GST-PLK3, read-out: Plk3 IC50): > 50000 nM

Other lines, results leading:

- IC50 (PLK2 [2]; GST-PLK2): 1000 to 10000 nM
- IC50 (PLK1; GST-PLK1): 1000 to 10000 nM
- IC50 (PLK3; GST-PLK3, read-out: Plk3 IC50): 10000 to 50000 nM
SMILES: CC[C@@H]1C(=O)N(C)c2cnc(-n3cnc(C(=O)N(C)C)c3)nc2N1C1CCCC1 [Example 384, (R)-1-(8-cyclopentyl-7-ethyl-5-methyl-6-oxo-5,6,7,8-tetrahydropteridin-2-yl)-N,N-dimethyl-1H-imidazole-4-carboxamide]

- IC50 (PLK2 [2]; GST-PLK2): < 1000 nM
- IC50 (PLK1; GST-PLK1): 1000 to 10000 nM
- IC50 (PLK3; GST-PLK3, read-out: Plk3 IC50): 1000 to 10000 nM
SMILES: CCC1C(=O)N(C)c2cnc(-n3ccnc3-c3ccc(F)cc3)nc2N1c1ccc(Cl)cc1 (centres unmarked) [Example 388, 8-(4-chlorophenyl)-7-ethyl-2-(2-(4-fluorophenyl)-1H-imidazol-1-yl)-5-methyl-7,8-dihydropteridin-6(5H)-one]

- IC50 (PLK2 [2]; GST-PLK2): < 1000 nM
- relative PLK2 activity of the enantiomers (PLK2 [2]): more active compound
- IC50 (PLK1; GST-PLK1): < 1000 nM
- IC50 (PLK3; GST-PLK3, read-out: Plk3 IC50): < 1000 nM
SMILES: CC[C@@H]1C(=O)N(C)c2cnc(-c3cnsc3-c3ccc(F)cc3)nc2N1c1cccc(C#N)c1 [Example 391, (R)-3-(7-ethyl-2-(5-(4-fluorophenyl)isothiazol-4-yl)-5-methyl-6-oxo-6,7-dihydropteridin-8(5H)-yl)benzonitrile]

- IC50 (PLK2 [2]; GST-PLK2): > 50000 nM
- IC50 (PLK1; GST-PLK1): > 50000 nM
- IC50 (PLK3; GST-PLK3, read-out: Plk3 IC50): > 50000 nM
SMILES: CC[C@H]1C(=O)N(C)c2cnc(-c3cnsc3-c3ccc(F)cc3)nc2N1c1cccc(C#N)c1 [Example 392, (S)-3-(7-ethyl-2-(5-(4-fluorophenyl)isothiazol-4-yl)-5-methyl-6-oxo-6,7-dihydropteridin-8(5H)-yl)benzonitrile]

- IC50 (PLK2 [2]; GST-PLK2): 1000 to 10000 nM
- IC50 (PLK1; GST-PLK1): 10000 to 50000 nM
- IC50 (PLK3; GST-PLK3, read-out: Plk3 IC50): > 50000 nM
SMILES: CC[C@H]1C(=O)N(C)c2cnc(-c3cn[nH]c3-c3nccs3)nc2N1c1ccc(F)c(F)c1 [Example 393, (S)-8-(3,4-difluorophenyl)-7-ethyl-5-methyl-2-(5-(thiazol-2-yl)-1H-pyrazol-4-yl)-7,8-dihydropteridin-6(5H)-one]

- IC50 (PLK2 [2]; GST-PLK2): < 1000 nM
- relative PLK2 activity of the enantiomers (PLK2 [2]): more active compound
- IC50 (PLK1; GST-PLK1): < 1000 nM
- IC50 (PLK3; GST-PLK3, read-out: Plk3 IC50): 1000 to 10000 nM
SMILES: CC[C@@H]1C(=O)N(C)c2cnc(-c3cn[nH]c3-c3nccs3)nc2N1c1ccc(F)c(F)c1 [Example 395, (R)-8-(3,4-difluorophenyl)-7-ethyl-5-methyl-2-(5-(thiazol-2-yl)-1H-pyrazol-4-yl)-7,8-dihydropteridin-6(5H)-one]
